According to patent US12377086B2, “Therapeutic methods, combinations and kits” (priority 2021, dated 2025):
Like-named read-outs stand apart in the source and are kept apart here.

Legend:
E. coli = format: cell-based, Escherichia coli
Description: (§1) The optical density of the cell cultured was monitored at 600 nm (OD600 nm). The cells were cultured on 0.8 g/100 ml nutrient agar plate at pH 7.0 and 37° C. […] An overnight culture of the bacterial strain was sub-cultured to 0.06 OD600 nm into the NB medium and was then seeded at max 200 μl into the wells of a 96 well microtiter plate. Samples were then incubated at 37° C. and shaken at 200 rpm for 18 h. The absorbance was measured on an ELIZA plate reader and analyzed with the Gen5™ software suite (version 1.08).
(§2) • The data are reported as relative percentage growth compared to untreated cells.

VIM-2 expressing E. coli [1] = format: cell-based, Escherichia coli; details: for VIM-2 expressing E. coli Amox (+) relative percentage growth compared to untreated cells: with 50 μM amoxicillin
Description: as §1, §2

NDM-1 [2] = target: T1, NDM-1 (Klebsiella pneumoniae, UniProt C7C422); assay: biochemical; details: read-out: NDM-1 percentage inhibition, 50 μM compound, 5 nM MBL, 10 μM nitrocefin, 30 mins
Description: BL21 (DE3) E. coli cells containing the pET26b-ndm-1 plasmid were used to inoculate a 50 mL LB starter culture containing kanamycin (25 μg/mL). The culture was grown overnight at 37° C. The starter culture was then used to inoculate 4×1 L LB containing kanamycin (25 μg/mL). These flasks were incubated at 37° C. until culture reached an optical density of (OD600) of 0.6 to 0.8. The incubator was then set to 22° C. and the cultures were shaken for 30 min to allow them to cool. ZnCl2 ([…]) and IPTG (0.5 mM) were then added to the cultures and they were grown for 18 h at 22° C. The cells were then harvested using centrifugation (8000×g) for 10 min. The pellet was resuspended with 25 mL 50 mM HEPES, pH 7.5 containing 500 mM NaCl (Buffer B). Lysis was performed with three passes through a French Press. The lysate was centrifuged for 30 min (15,000×g) at 4° C. The supernatant was then dialyzed versus 2 L 50 mM HEPES, pH 7.5 (Buffer C) for 4 h. An FPLC was used to equilibrate a Q-Sepharose column using buffer C using a flowrate of 2.0 mL/min for 1.5 h. The lysate was then loaded onto the column and eluted with a linear NaCl gradient from 0-500 mM. Fractions containing NDM-1 were identified with SDS-PAGE. These fractions were pooled and concentrated to 2-3 mL in an Amicon ultracentrifugation concentrating unit with a YM-10 membrane. The resulting protein mixture was then loaded onto a Sephacryl S-200 gel filtration column run with 50 mM HEPES, pH 7.5 containing 150 mM NaCl (Buffer A). SDS-PAGE was used to identify fractions containing pure protein.
(§3) To identify potential MBL inhibitors, the relative change in the formation of hydrolyzed nitrocefin between treated and untreated MBL was determined as percentage inhibition. 5 nM of each BML was pre-incubated for 10 mins with 50 μM of each compound, followed by the addition of 10 μM nitrocefin.
(§4) Each MBL was incubated with 50 μM of each compound, followed by the addition of nitrocefin. The relative change in absorbance is reported as percentage inhibition.

VIM-2 [3] = target: T2, VIM-2 (Pseudomonas aeruginosa, UniProt Q5U7L7); details: after incubation with inhibitor and dialysis
Description: VIM-2 was diluted to 6 μM with 50 mM HEPES, pH 7.5, containing 150 mM NaCl. The diluted protein solution was used to make several 5 mL aliquots. […] One aliquot contained one molar equivalent of inhibitor (6 μM), with respect to enzyme concentration, and the second aliquot contained two molar equivalents (12 μM). One aliquot contained no inhibitor. Each aliquot was then incubated for 4 h at 4° C. Following incubation, each aliquot was dialyzed versus 500 mL of 50 mM HEPES, pH 7.5, for 4 h at 4° C. The aliquots were analyzed using ICP-AES, as previously described REF. The emission wavelengths used were 213.856, 238.892, 259.940, 231.604, and 324.754 nm for Zn, Co, Fe, Ni, and Cu, respectively.
To further address the mode of action of 8-hydroxyquinolines, equilibrium dialysis experiments were conducted. […] EDTA, a well-known metal scavenger, inhibits all MBLs through a chelation mechanism (Bush, K.; Jacoby, G. A. Updated Functional Classification of beta-Lactamases. Antimicrobial Agents and Chemotherapy 2010, 54, 969-976).

VIM-2 [4] = target: T2, VIM-2; assay: biochemical; details: for VIM-2 percentage inhibition: 50 μM compound, 5 nM MBL, 10 μM nitrocefin, 30 mins
Description: (§5) The pET24a-VIM-2 plasmid was transformed into competent BL21 (DE3) E. coli cells. The cells were plated onto an LB-agar plate with kanamycin (25 μg/mL) and incubated overnight at 37° C. A single colony was used to inoculate 50 mL of LB, containing 25 μg/mL kanamycin, and the culture was shaken overnight at 37° C. From the overnight culture, 10 mL were transferred to 4×IL LB medium containing 25 μg/mL kanamycin. The cultures were grown at 37° C. until an optical density (OD600 nm) of 0.6-0.8 was reached, at which point protein production was induced with IPTG (0.5 mM) and ZnCl2 (100 μM). The temperature was reduced to 20° C., and the cells were shaken for an additional 18 h. The cultures were harvested by centrifugation (8 Kxg) for 10 min at 4° C. The resulting pellets were re-suspended in 25 mL of 50 mM HEPES, pH 7.5, containing 500 mM NaCl (buffer B). The cells were lysed with three passes through a French Press. The lysate was centrifuged (15 Kxg) for 30 min at 4° C. The supernatant was dialyzed against 2 L of 50 mM HEPES, pH 7.5 (buffer A), for 4 h. Buffer A was used to equilibrate a 25 mL Q-Sepharose column using an FPLC. The sample was loaded onto the column, and proteins were eluted with a linear gradient 0-500 mM NaCl with buffer B. Fractions containing VIM-2, determined by SDS-PAGE, were pooled and concentrated to 2-3 mL in an Amicon ultraconcentrator equipped YM-10 membrane. Further purification was conducted with a Sephacryl S-200 gel filtration column using 50 mM HEPES, pH 7.5, containing 150 mM NaCl. Fractions containing pure VIM-2 were pooled, and metal analysis was performed.
as §3, §4

VIM-2 [5] = target: T2, VIM-2; assay: biochemical
Description: as §5, with “Further purification was conducted with a Sephacryl S-200 gel filtration column using 50 mM HEPES, pH 7.5, containing 150 mM NaCl.” left out
The enzyme inhibition constant (Ki) was derived from initial-velocity measurements by nonlinear regression using competitive-inhibition enzyme kinetics using Graphpad Prism 6.

[6] = cited from earlier work
VIM-2 expressing E. coli [7] = format: cell-based, Escherichia coli
Description: as §1
The bacterial culture was prepared as described above. The diluted subculture bacteria in NB medium were set up to a final volume of 200 μl in clear flat-bottom 96-well plates containing ten different concentrations of each tested compound ranging from 0.001 μM to 50 μM. The mixing of the bacterial culture plate were then incubated in a 37° C. […] shaken incubator at 200 rpm for 18 h before measuring their optical density at 600 nm.

HEK293 cells = assay: Human cell cytotoxicity assay (MTT); details: 72 h
Description: (§6) Human embryonic kidney cell line (HEK293) were grown in 100 mm cell culture petri dishes at 37° C. with 5% CO2 in Dulbecco's Modified Eagle's Medium high glucose medium containing 1% penicillin/streptomycin (Sigma-Aldrich, St. Louis, MO) and supplemented with 5% of fetal bovine serum (Thermo Fisher Scientific Gibco®). Cells under 10 passages and the 80% of monitored cell petri dish were used for experiment.
(§7) Cytotoxicity of tested compounds were estimated using the MTT method. Cell viability were measured by counting viable cells by using the 3 (4,5dimethylthiazol-2-yl)-2,5-diphenyltetrazolium bromide (MTT) (Sigma-Aldrich, St. Louis, MO) colorimetric dye-reduction assay. […] Following 24 h incubation and attachment, the cells were incubated for 72 h with different concentrations of inhibitors (0.01˜100 μM) in culture media without FBS. The Control cells were supplemented only with a medium without containing FBS. All samples in 96 well plate were incubated at 37° C. at an atmosphere of 5% CO2. […] The absorbance was measured using a micro-plate reader at wavelength 590 nm. The CC50 were obtained based on a comparison with untreated cells by fitting the data to a sigmoidal dose-response equation using Graphpad Prism 6.

in vitro = details: human
Description: as §6, §7

NDM-1 [8] = target: T1, NDM-1
Description: Nitrocefin (Cayman, CAS 41906-86-9) was used as the chromogenic substrate for all biochemical assays. […] The rate of product formation was monitored based on the λmax=486 nm absorbance taken at 10 s intervals for 30 mins. […] Velocity versus substrate concentration curves were fitted by nonlinear regression using Michaelis-Menten Enzyme kinetics with Graphpad Prism 6.

VIM-2 [9] = details: reported previously, cited from earlier work
[10] = 5 nM MBL, 10 μM nitrocefin, read-out: VIM-2 IC50
[11] = nitrocefin substrate, competitive-inhibition fit, read-out: VIM-2 Ki
[12] = in the presence of 50 μM amoxicillin

T1 sequence (C7C422 whole entry, looked up, species assumed): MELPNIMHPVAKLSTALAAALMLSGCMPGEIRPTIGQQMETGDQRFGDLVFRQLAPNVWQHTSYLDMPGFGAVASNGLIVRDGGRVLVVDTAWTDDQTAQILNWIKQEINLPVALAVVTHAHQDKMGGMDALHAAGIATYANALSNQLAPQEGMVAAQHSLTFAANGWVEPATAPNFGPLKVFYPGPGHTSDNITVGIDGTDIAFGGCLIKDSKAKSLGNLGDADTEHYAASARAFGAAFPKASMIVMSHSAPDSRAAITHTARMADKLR

SMILES: CC1(C)S[C@@H]2[C@H](NC(=O)[C@H](N)c3ccc(O)cc3)C(=O)N2[C@H]1C(=O)O [Amox, amoxicillin]
- E. coli Amox (+) relative percentage growth compared to untreated cells (E. coli): 3.6%
- growth inhibition of wild type E. coli (E. coli): over 96%
- VIM-2 expressing E. coli Amox (+) relative percentage growth compared to untreated cells (VIM-2 expressing E. coli [1]; single dose): 77%

SMILES: O=C(O)[C@H]1/C(=C/CO)O[C@@H]2CC(=O)N21 [Clav, Clavulanate]
- E. coli Amox (+) relative percentage growth compared to untreated cells (E. coli; wild type E. coli, single dose, with 50 μM amoxicillin): 2.9%
- E. coli Amox (−) relative percentage growth compared to untreated cells (E. coli; wild type E. coli, single dose, without amoxicillin): 86%
- VIM-2 expressing E. coli Amox (+) relative percentage growth compared to untreated cells (VIM-2 expressing E. coli [1]; single dose): 57%
- VIM-2 expressing E. coli Amox (−) relative percentage growth compared to untreated cells (VIM-2 expressing E. coli [1]; single dose, without amoxicillin): 93%

SMILES: C[C@H](CS)C(=O)N1CCC[C@H]1C(=O)O [Compound 1, L-captopril, reference compound]
- inhibition at 50 µM (NDM-1 [2]): 93%
- metal content of VIM-2 / removal of Zn(II) from the active site (VIM-2 [3]): relatively unaffected

SMILES: Oc1cccc2cccnc12 [Compound 31, 8-Hydroxyquinoline]
- VIM-2 percentage inhibition (VIM-2 [4]): 98%
- inhibition at 50 µM (VIM-2 [4]; read-out: VIM-2 percentage inhibition, 50 μM compound, 5 nM MBL, 10 μM nitrocefin, 30 mins): > 96%
- IC50 (VIM-2 [5]): 3600 nM
- Ki (VIM-2 [5]): 670 nM
- metal content of VIM-2 / removal of Zn(II) from the active site (VIM-2 [3]): do not inhibit VIM-2 by removal of Zn(II)
- pKa, hydroxyl group ([6]; hydroxyl group): 9.89
- pKa, nitrogen atom ([6]; nitrogen atom): 5.13

SMILES: O=[N+]([O-])c1ccc(O)c2ncccc12 [Compound 41]
- VIM-2 percentage inhibition (VIM-2 [4]): 86%
- IC50 (VIM-2 [5]; [10]): 670 nM
- Ki (VIM-2 [5]; [11]): 250 nM
- EC50 (VIM-2 expressing E. coli [7]; 50 uM amoxicillin): 70 nM
- EC50 (VIM-2 expressing E. coli [7]; [12]): 70 nM
- CC50 (HEK293 cells): 7800 nM

SMILES: Oc1c(I)cc(Cl)c2cccnc12 [Compound 48, Clioquinol, reference compound]
- VIM-2 percentage inhibition (VIM-2 [4]): 93%
- IC50 (VIM-2 [5]; [10]): 5100 nM
- Ki (VIM-2 [5]; [11]): 1100 nM
- synergistic growth inhibition (VIM-2 expressing E. coli [1]; VIM-2 expressing E. coli, compound with amoxicillin): over 96%
- EC50 (VIM-2 expressing E. coli [7]; [12]): 940 nM
- metal content of VIM-2 / removal of Zn(II) from the active site (VIM-2 [3]): do not inhibit VIM-2 by removal of Zn(II)
- CC50 (HEK293 cells): 18300 nM

SMILES: O=C(O)c1cccc(=S)n1O [Compound 51, 1-hydroxypyridine-2 (1H)-thione-6-carboxylic acid, reference compound]
- IC50 (VIM-2 [5]): 310 nM
- Ki (VIM-2 [5]): 20 nM
- CC50 at 72 h (in vitro): 92000 nM

SMILES: O=C(O)CN(CCN(CC(=O)O)CC(=O)O)CC(=O)O [EDTA]
- Zn(II) removed from VIM-2 (VIM-2 [3]): 1 equivalent of Zn(II)

SMILES: O=C(Cc1cccs1)N[C@@H]1C(=O)N2C(C(=O)O)=C(/C=C/c3ccc([N+](=O)[O-])cc3[N+](=O)[O-])CS[C@H]12 [nitrocefin, Nitrocefin]
- kcat, hydrolysis of nitrocefin by NDM-1 (NDM-1 [8]): 25 s⁻¹
- Km (NDM-1 [8]; read-out: Km, hydrolysis of nitrocefin by NDM-1): 2.2 µM
- kcat, hydrolysis of nitrocefin by VIM-2 (VIM-2 [9]): 212 s⁻¹
- Km (VIM-2 [9]; read-out: Km, hydrolysis of nitrocefin by VIM-2): 23 µM
